The text below walks through data of PubChem BioAssay AID258 (DTP/NCI, 2004).

“And” between values parts separate entries of the source, which are not always exact repeats. Identical values can stand only once. Toxic doses and inconclusive results are not listed.

This test concerns CD2F1 mice, L1210 leukemia sc, survival T/C. Put plainly: NCI In Vivo Anticancer Drug Screen. Data for tumor model L1210 Leukemia (subcutaneous) in CD2F1 (CDF1) mice. Particulars: endpoint: median survival time, higher = longer survival. A digest of the protocol:
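Transplantable tumor-bearing mice were treated with compound; survival or tumor size measured and expressed as treated-group value (T) divided by vehicle-treated control value (C).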

Turning to `NCCCNCCCCNC(=O)C(O)NC(=O)CCCCCCN=C(N)N` (stereo not drawn), the T/C by setting is: (dose: 0.75 mg/kg/injection, schedule: Q01DX009 (ip), vehicle: saline) 156 % of control; (dose: 1.5 mg/kg/injection, schedule: Q01DX009 (ip), vehicle: saline) 172 % of control; (dose: 1.56 mg/kg/injection, schedule: Q01DX009 (ip), vehicle: saline) 162 % of control and 183 % of control; (dose: 3.0 mg/kg/injection, schedule: Q01DX009 (ip), vehicle: saline) 192 % of control; (dose: 3.12 mg/kg/injection, schedule: Q01DX009 (ip), vehicle: saline) 198 % of control and 203 % of control; (dose: 4.0 mg/kg/injection, schedule: Q01DX001 (ip), vehicle: saline) 107 % of control. The T/C is 121 % of control (dose: 4.0 mg/kg/injection, schedule: Q03HX008 (ip), vehicle: saline); 237 % of control (dose: 6.0 mg/kg/injection, schedule: Q01DX009 (ip), vehicle: saline); 207 % of control and 235 % of control (dose: 6.25 mg/kg/injection, schedule: Q01DX009 (ip), vehicle: saline); 103 % of control and 109 % of control (dose: 8.0 mg/kg/injection, schedule: Q01DX001 (ip), vehicle: saline); 239 % of control (dose: 12.0 mg/kg/injection, schedule: Q01DX009 (ip), vehicle: saline); 228 % of control and 231 % of control (dose: 12.5 mg/kg/injection, schedule: Q01DX009 (ip), vehicle: saline). In addition, the T/C is, setting by setting: (dose: 16.0 mg/kg/injection, schedule: Q01DX001 (ip), vehicle: saline) 107 % of control and 113 % of control; (dose: 25.0 mg/kg/injection, schedule: Q01DX009 (ip), vehicle: saline) 160 % of control and 220 % of control and 275 % of control; (dose: 32.0 mg/kg/injection, schedule: Q01DX001 (ip), vehicle: saline) 115 % of control and 123 % of control.

With `Nc1nc2ncn(O)c2c(=O)[nH]1`, the T/C is, setting by setting: (dose: 4.5 mg/kg/injection, schedule: Q01DX009 (ip), vehicle: other) 278 % of control; (dose: 7.5 mg/kg/injection, schedule: Q01DX009 (ip), vehicle: other) 164 % of control; (dose: 12.5 mg/kg/injection, schedule: Q01DX009 (ip), vehicle: other) 268 % of control; (dose: 20.83 mg/kg/injection, schedule: Q01DX009 (ip), vehicle: other) 113 % of control.

As to `c1ccc(CNc2ncnc3[nH]ncc23)cc1`, the T/C is 105 % of control (dose: 8.4 mg/kg/injection, schedule: Q01DX Z (sc), vehicle: methylcellulose (MC)); 100 % of control (dose: 14.0 mg/kg/injection, schedule: Q01DX Z (sc), vehicle: methylcellulose (MC)); 100 % of control (dose: 23.0 mg/kg/injection, schedule: Q01DX Z (sc), vehicle: methylcellulose (MC)); 100 % of control (dose: 39.0 mg/kg/injection, schedule: Q01DX Z (sc), vehicle: methylcellulose (MC)); 111 % of control (dose: 65.0 mg/kg/injection, schedule: Q01DX Z (sc), vehicle: methylcellulose (MC)); 122 % of control (dose: 108.0 mg/kg/injection, schedule: Q01DX Z (sc), vehicle: methylcellulose (MC)).

In the case of `COc1cccc2c1C(=O)c1c(O)c3c(c(O)c1C2=O)CC(O)(C(C)=O)CC3OC1CC(N)C(O)C(C)O1` (stereo not drawn), the T/C is, setting by setting: (dose: 2.9 mg/kg/injection, schedule: Q01DX009 (ip), vehicle: saline) 96 % of control; (dose: 5.8 mg/kg/injection, schedule: Q01DX009 (ip), vehicle: saline) 96 % of control; (dose: 11.7 mg/kg/injection, schedule: Q01DX009 (ip), vehicle: saline) 98 % of control; (dose: 23.4 mg/kg/injection, schedule: Q01DX009 (ip), vehicle: saline) 103 % of control; (dose: 46.8 mg/kg/injection, schedule: Q01DX009 (ip), vehicle: saline) 108 % of control.

As to `O=C(O)c1[nH]c(=O)[nH]c(=O)c1F`, the T/C reads like this: (dose: 3.0 mg/kg/injection, schedule: Q01DX Z (sc), vehicle: saline) 111 % of control; (dose: 8.4 mg/kg/injection, schedule: Q01DX Z (sc), vehicle: saline) 177 % of control; (dose: 14.0 mg/kg/injection, schedule: Q01DX Z (sc), vehicle: saline) 155 % of control; (dose: 23.0 mg/kg/injection, schedule: Q01DX Z (sc), vehicle: saline) 166 % of control; (dose: 39.0 mg/kg/injection, schedule: Q01DX Z (sc), vehicle: saline) 155 % of control.

For the compound `COC1=C(N)C(=O)c2nc(-c3nc(C(=O)O)c(C)c(-c4ccc(OC)c(OC)c4O)c3N)ccc2C1=O`, the T/C (dose: 0.13 mg/kg/injection, schedule: Q01DX Z (sc), vehicle: water) is 110 % of control; the T/C (dose: 0.22 mg/kg/injection, schedule: Q01DX Z (sc), vehicle: water) was 110 % of control; the T/C (dose: 0.36 mg/kg/injection, schedule: Q01DX Z (sc), vehicle: water) is 110 % of control; the T/C (dose: 0.6 mg/kg/injection, schedule: Q01DX Z (sc), vehicle: water) was 105 % of control; the T/C (dose: 1.0 mg/kg/injection, schedule: Q01DX Z (sc), vehicle: water) was 110 % of control.

For `Cc1ccc(NCCN(C)C)c2c(=O)c3cc(O)ccc3sc12`, the T/C reads like this: (dose: 12.5 mg/kg/injection, schedule: Q01DX009 (ip), vehicle: Klucel (hydroxypropylcellulose) (HPC)) 110 % of control and 112 % of control; (dose: 25.0 mg/kg/injection, schedule: Q01DX009 (ip), vehicle: Klucel (hydroxypropylcellulose) (HPC)) 112 % of control and 117 % of control; (dose: 50.0 mg/kg/injection, schedule: Q01DX009 (ip), vehicle: Klucel (hydroxypropylcellulose) (HPC)) 165 % of control.

For the compound `O=C(Nc1nncs1)c1cccs1`, the T/C was 99 % of control (dose: 50.0 mg/kg/injection, schedule: Q01DX009 (ip), vehicle: saline with Tween-80); 95 % of control (dose: 100.0 mg/kg/injection, schedule: Q01DX009 (ip), vehicle: saline with Tween-80); 100 % of control (dose: 200.0 mg/kg/injection, schedule: Q01DX009 (ip), vehicle: saline with Tween-80); 100 % of control (dose: 400.0 mg/kg/injection, schedule: Q01DX009 (ip), vehicle: saline with Tween-80); 121 % of control (dose: 800.0 mg/kg/injection, schedule: Q01DX009 (ip), vehicle: saline with Tween-80).
